From patent publication US5441732A, “Reversible gelation emulsion compositions and methods of use” (Allergan, Inc., priority 1992, dated 1995)
Where two headings read alike, the source gives them in different places.

How the values were obtained:
[1] = Drug solubility in oil at room temperature; type: physicochemical; settings: for Drug solubility in Miglyol: Miglyol 812
[2] = cited from earlier work

SMILES | Drug solubility in Diethyl Phthalate [1] | solubility in diethyl phthalate [1] | Drug solubility in Miglyol [1] | water solubility ([2]; pH 4.0) | water solubility ([2]; pH 7.4)
CC(=O)[C@@]1(O)CC[C@H]2[C@@H]3C[C@H](C)C4=CC(=O)C=C[C@]4(C)[C@@]3(F)[C@@H](O)C[C@@]21C [Fluorometholone] | 0.075% | relatively low | < 0.001% | – | –
CC(C(=O)O)c1ccc(-c2ccccc2)c(F)c1 (stereo not shown) [Flurbiprofen (free acid)] | 12-20% | – | 2-4% | very small | higher
